pIC50: −log10 of the molar value. Like-named read-outs stand apart in the source and are kept apart here.
Key:
[1] = tested on: cancer patients; conditions: cited from earlier work
[2] = tested on: SW1573; assay: 2D combinational test (SRB growth inhibition, six days); conditions: SW1573
Experimental: (§3) H358, SW1573, H1792, MIAPACA2, SW1990, SNUC2B, SW480, A549 and HCT116 were purchased from ATCC, while SW48 KRAS G12C colorectal cell line and H838 KRAS G12D lung cell line was bought from Horizon Discovery Ltd. Most of the cell lines were heterozygous for mutant KRAS, as in human cases used to occur, but we also used cell lines with homozygous mutant KRAS.
(§4) Cells were cultured in DMEM (Lonza, Switzerland; with 4500 mg/dm3 glucose, pyruvate and L-glutamine) supplemented with 10% fetal calf serum (EuroClone) and 1% penicillin-streptomycin-amphotericin (Lonza) in tissue culture flasks in a humidified 5% CO2 atmosphere at 37° C.
(§5) For in vitro experiments drugs were dissolved in DMSO in 10 mM stock concentration and stored at −80° C.
Cells that reached 70-80% confluency were trypsinized and counted using Luna II Automated Cell Counter. Cells were plated in 5000-10000 cells/well density (depending on the growth rate of the given cell line) on a 24 well plate. Next day the medium was replaced to fresh medium supplemented with the inhibitors. After 6 days, the wells were washed with DPBS (Lonza) and the cells were fixed by 10% trichloroacetic acid and stained with Sulphorodamine-B (SRB) (Sigma) dye for 15 minutes. Plates then were repeatedly washed with 1% acetic acid to remove excess dye. Protein-bound SRB was then dissolved in 10 mM Tris buffer (pH=7,4) and OD was measured at 570 nm using a microplate reader (EL800, BioTec Instruments, Winooski, VT). OD values were normalized to control. Transformed data then were used to calculate combinational index (CI) values using Compusyn software as described in https://www.combosyn.com/index.html. Data shown are results of three independent experiments.

[3] = tested on: H358 xenografts; assay: In vivo tumor growth of subcutaneous xenografts; set-up: species or system female SCID mice; conditions: AMG510 5 mg/kg i.p. and/or tipifarnib 40 mg/kg i.p.
Experimental: (§1) H358 and SW1573 human lung adenocarcinoma cells (5×10^6 and 1×10^6, respectively) were subcutaneously injected in female SCID mice. Cells were injected in 200 μl DMEM:Matrigel mixture (ratio 1:1) based on preliminary experiments. When tumor reached approximately 100 mm^3 (H358 7 days, SW1573 26 days after injection), animals were randomized and treated intraperitoneally daily except for weekends. Drugs were dissolved in 60% DPBS, 34% PEG300, 5% DMSO and 1% Tween80. […] Controls received vehicle. Doses were determined based on previous literature, roughly using half of the used per os doses. The subcutaneous tumors were measured with a caliper and tumor volumes were calculated with the formula […] and expressed in mm^3. H358 experiment was terminated after 18 days and SW1573 after 25 days treatment. Tumors were measured upon harvest, then fixed with 4% PFA for histological analyses.
(§2) Animals were the properties of the Department of Experimental Pharmacology, National Institute of Oncology, H-1122, Budapest, Hungary. All experiments were carried out in accordance with the Guidelines for Animal Experiments and were approved for the Department of Experimental Pharmacology in the National Institute of Oncology, Budapest, Hungary.

[4] = tested on: SW1573 xenografts; assay: In vivo tumor growth of subcutaneous xenografts; set-up: species or system female SCID mice; conditions: AMG510 25 mg/kg i.p. and/or tipifarnib 40 mg/kg i.p.
Experimental: as §1, §2

[5] = tested on: H358; assay: 2D combinational test (SRB growth inhibition, six days)
Experimental: as §3, §4, §5
Cells that reached 70-80% confluency were trypsinized and counted using Luna II Automated Cell Counter. Cells were plated in 5000-10000 cells/well density (depending on the growth rate of the given cell line) on a 24 well plate. Next day the medium was replaced to fresh medium supplemented with the inhibitors. After 6 days, the wells were washed with DPBS (Lonza) and the cells were fixed by 10% trichloroacetic acid and stained with Sulphorodamine-B (SRB) (Sigma) dye for 15 minutes. […] Protein-bound SRB was then dissolved in 10 mM Tris buffer (pH=7,4) and OD was measured at 570 nm using a microplate reader (EL800, BioTec Instruments, Winooski, VT). […]

[6] = tested on: SW1573; assay: siRNA knockdown experiment (SRB, IC50); type: cell-based, human; conditions: 6-day-long treatment
Experimental: Cells were plated in 2500 and 7500 cells/well density (for non-targeting siRNA and HRAS siRNA treatment, respectively) on a 48we11 plate supplemented with pre-mixed Lipofectamine RNAIMAX Reagent (Thermo Fisher) and OptiMEM (Thermo Fisher) containing 2.5 pmol/well non-targeting or HRAS siRNA according to the manufacturer's instruction (reverse transfection protocol). […] On the 3rd day of the treatment, cells were supplemented with fresh pre-mixed 2.5 pmol/well siRNA diluted in Lipofectamine RNAiMAX Reagent and Optimem according to the manufacturer's instruction. […] OD values were normalized to control, and IC50 values were calculated from transformed data using GraphPad PRISM 5 software.

[7] = tested on: SW1573 spheroids; assay: 3D spheroid growth test; type: cell-based, human
Experimental: Spheroids were generated using polyHEMA coated 96we11 round bottom plates. Briefly, the inner 60 wells of the plate were coated with 60 μl 5 mg/ml polyHEMA dissolved in 96% ethanol. Plates were dried at 60° C. in a plate shaker while shaking, then sterilized with UV. Cells were seeded at 3000 cells/well density at the inner 60 polyHEMA coated wells in 200 μl medium, while the outer wells were filled with DPBS (Lonza) to avoid evaporation. Plates were then centrifugated at 2000 RPM so that cells would be concentrated at the bottom of the well thus enhancing single spheroid formation. Within 24 hours the cells aggregated into spheroids and were treated by adding further 100 μl medium supplemented with the inhibitors. Each concentration group contained three spheroids. Each spheroid was pictured using a ToupCam XW 3MP microscope-camera on the first and sixth day of the treatment. Before imaging, medium was gently suspended so that unattached or dead cells would be removed from the surface of the spheroids. Images then were analysed using ImageJ software with a modified script of [1]. Briefly, the script measures the area of the 2D projections of the spheroids. Results were manually reviewed, then area values were used to calculate radius and volume of spheroids using the formula V=4/3×π×radius^3. Data are shown as results of three independent experiments.

[8] = (day 1 = 1), animal 1, in g (unit assumed)
[9] = (day 1 = 1), animal 3, in g (unit assumed)
[10] = (day 1 = 1), animal 4, in g (unit assumed)
[11] = (day 1 = 1), animal 6, in g (unit assumed)
[12] = (day 1 = 1), animal 7, in g (unit assumed)
[13] = (day 1 = 1), group mean, in g (unit assumed)

**Q.** What does the source list for sotorasib [AMG510]?
**A.** Clinical efficacy in monotherapy ([1]; LUAD patients): good efficacy; Clinical efficacy in monotherapy ([1]; colorectal cancer patients): relatively less effective; Clinical toxicity ([1]; tested clinically): without rate limiting toxicities; Sensitivity to treatment in 2D in vitro experiments [2]: resistant; Weights of the tumors at the end of the experiment [3, 8]: 0.053; Weights of the tumors at the end of the experiment ([3]; (day 1 = 1), animal 2, in g (unit assumed)): 0.559; Weights of the tumors at the end of the experiment [3, 9]: 0.038; Weights of the tumors at the end of the experiment [3, 10]: 0.157; Weights of the tumors at the end of the experiment [3, 11]: 0.254; Weights of the tumors at the end of the experiment [3, 12]: 0.029; Weights of the tumors at the end of the experiment, MEAN [3, 13]: 0.1817; Inhibition of tumor growth (in words) ([3]; daily except weekends): effectively inhibited tumors; Weights of the tumors at the end of the experiment [4, 8]: 0.1025; Weights of the tumors at the end of the experiment [4, 9]: 0.7238; Weights of the tumors at the end of the experiment [4, 10]: 0.2227; Weights of the tumors at the end of the experiment ([4]; (day 1 = 1), animal 5, in g (unit assumed)): 0.144; Weights of the tumors at the end of the experiment [4, 11]: 0.5804; Weights of the tumors at the end of the experiment [4, 12]: 0.4184; Weights of the tumors at the end of the experiment, MEAN [4, 13]: 0.3653; Inhibition of tumor growth (in words) ([4]; daily except weekends): effectively inhibited tumors; Sensitivity to treatment in 2D in vitro experiments [5]: highly sensitive; pIC50 ([6]; Cont (non-targeting) siRNA): 7.00; pIC50 ([6]; HRAS siRNA): 7.29; Drug sensitivity in 3D compared to 2D settings [7]: higher sensitivity

— patent US20240058321A1, “FARNESYL-TRANSFERASE INHIBITORS AND KRAS INHIBITORS FOR TREATING KRAS MUTANT CANCERS” (SEMMELWEIS EGYETEM, priority 2021, published 2024)
